# Reference: patent publication EP3383875B1, “3-PYRIMIDINYL PYRROLO [2,3-B] PYRIDINE AS ANTICANCER AGENTS AND THE PROCESS FOR THE PREPARATION THEREOF” (Council Of Scientific & Industrial Research, priority 2015, dated 2017)
# Like-named read-outs stand apart in the source and are kept apart here.
# Columns and labels:
# CDK-2/cyclin A = CDK-2/cyclin A (Homo sapiens, UniProt P24941); assay: CDK inhibition assay, CDK-2/cyclin A against Histone HI, 33P-ATP; format: biochemical; conditions: at 500 nM
# Procedure: Compounds were evaluated for their ability to inhibit CDK2 and CDK9 as given below.
# CDK-2/cyclin A (5-20 mU diluted in 50 mM Hepes pH 7.5, 1 mM DTT, 0.02% Brij35, 100 mM NaCl) was assayed against Histone HI in a final volume of 25.5 µl containing 50 mM Hepes pH7.5, 1 mM DTT, 0.02% Brij35, 100 mM NaCl, Histone HI (1 mg/ml), 10 mM magnesium acetate and 0.02 mM [33P-g-ATP](500-1000 cpm/pmole) and incubated for 30 min at room temperature. Assays were stopped by addition of 5 µl of 0.5 M (3%) orthophosphoric acid and then harvested onto P81 Unifilter plates with a wash buffer of 50 mM orthophosphoric acid.
# CDK-9/Cyclin T1 = CDK-9/Cyclin T1 (Homo sapiens, UniProt P50750); assay: CDK inhibition assay, CDK-9/Cyclin T1 against substrate peptide, 33P-ATP; format: biochemical; conditions: at 500 nM
# Procedure: (50-1000 cpm/pmole) and incubated for 30 min at room temperature. Assays were stopped by addition of 5 µl of 0.5 M (3%) orthophosphoric acid and then harvested onto P81 Unifilter plates with a wash buffer of 50 mM orthophosphoric acid.
# [1] = Table-6, read-out: In vitro CDK2 % of inhibition
# [2] = read-out: inhibition against CDK2
# [3] = Table-6, read-out: In vitro CDK9 % of inhibition
# [4] = read-out: inhibition against CDK9
# [5] = Table-7, read-out: In vitro CDK2 % of inhibition
# [6] = Table-7, read-out: In vitro CDK9 % of inhibition
# Chain of CDK-9/Cyclin T1 (P50750 whole entry): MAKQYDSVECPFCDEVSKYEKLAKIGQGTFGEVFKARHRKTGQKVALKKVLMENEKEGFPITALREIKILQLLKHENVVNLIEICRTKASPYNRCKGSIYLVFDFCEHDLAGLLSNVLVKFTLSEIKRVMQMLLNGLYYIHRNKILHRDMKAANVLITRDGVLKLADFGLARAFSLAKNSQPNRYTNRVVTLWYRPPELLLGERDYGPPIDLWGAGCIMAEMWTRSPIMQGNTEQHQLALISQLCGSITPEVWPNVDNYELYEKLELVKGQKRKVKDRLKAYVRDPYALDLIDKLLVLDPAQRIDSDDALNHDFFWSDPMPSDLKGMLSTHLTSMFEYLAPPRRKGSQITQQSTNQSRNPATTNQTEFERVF
# Chain of CDK-9/Cyclin T1 (O60563 whole entry partner): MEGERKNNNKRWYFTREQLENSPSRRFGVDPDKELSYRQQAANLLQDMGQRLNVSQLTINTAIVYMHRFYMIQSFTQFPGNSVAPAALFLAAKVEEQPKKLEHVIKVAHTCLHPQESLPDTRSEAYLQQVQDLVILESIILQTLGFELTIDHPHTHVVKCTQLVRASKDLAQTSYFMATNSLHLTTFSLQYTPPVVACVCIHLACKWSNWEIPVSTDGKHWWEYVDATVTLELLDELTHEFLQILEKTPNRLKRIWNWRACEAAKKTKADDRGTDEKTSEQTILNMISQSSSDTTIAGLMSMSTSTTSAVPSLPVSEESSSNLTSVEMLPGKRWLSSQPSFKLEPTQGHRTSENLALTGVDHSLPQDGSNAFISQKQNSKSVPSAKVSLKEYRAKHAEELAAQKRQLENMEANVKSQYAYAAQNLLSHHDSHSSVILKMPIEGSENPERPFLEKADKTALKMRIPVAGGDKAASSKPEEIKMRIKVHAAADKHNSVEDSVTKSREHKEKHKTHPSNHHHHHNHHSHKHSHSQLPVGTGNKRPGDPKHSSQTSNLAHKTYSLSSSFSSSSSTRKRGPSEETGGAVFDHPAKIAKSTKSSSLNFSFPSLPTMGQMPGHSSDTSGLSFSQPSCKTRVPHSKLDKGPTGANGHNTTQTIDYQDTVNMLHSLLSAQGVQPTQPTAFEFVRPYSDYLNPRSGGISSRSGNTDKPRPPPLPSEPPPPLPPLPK
SMILES,inhibition at 0.5 µM (CDK-2/cyclin A; [1]) [%],inhibition at 0.5 µM (CDK-2/cyclin A; [2]) [%],inhibition at 0.5 µM (CDK-9/Cyclin T1; [3]) [%],inhibition at 0.5 µM (CDK-9/Cyclin T1; [4]) [%],inhibition at 0.5 µM (CDK-2/cyclin A; [5]) [%],inhibition at 0.5 µM (CDK-9/Cyclin T1; [6]) [%]
"c1ccc2[nH]c(-c3cnc4[nH]cc(-c5ccnc(NC6CCCC6)n5)c4c3)cc2c1 [1A39, 4-(5-(1H-indol-2-yl)-1H-pyrrolo[2,3-b]pyridin-3-yl)-N-cyclopentylpyrimidin-2-amine]",> 50,> 50,> 50,> 50,–,–
"c1ccc2c(-c3cnc4[nH]cc(-c5ccnc(NC6CCCC6)n5)c4c3)nccc2c1 [1A40, N-cyclopentyl-4-(5-(isoquinolin-1-yl)-1H-pyrrolo[2,3-b]pyridin-3-yl)pyrimidin-2-amine]",> 50,> 50,> 50,> 50,–,–
"FC(F)(F)Oc1ccc(-c2cnc3[nH]cc(-c4ccnc(NC5CCCCCC5)n4)c3c2)cc1 [1A43, N-cycloheptyl-4-(5-(4-(trifluoromethoxy)phenyl)-1H-pyrrolo[2,3-b]pyridin-3-yl)pyrimidin-2-amine]",> 50,> 50,> 50,> 50,–,–
"FC(F)(F)c1cccc(-c2cnc3[nH]cc(-c4ccnc(NC5CCCCCC5)n4)c3c2)c1 [1A44, N-cycloheptyl-4-(5-(3-(trifluoromethyl)phenyl)-1H-pyrrolo[2,3-b]pyridin-3-yl)pyrimidin-2-amine]",> 70,–,> 50,–,–,–
"Fc1cccc(-c2cnc3[nH]cc(-c4ccnc(NC5CCCCCC5)n4)c3c2)c1 [1A45, N-cycloheptyl-4-(5-(3-fluorophenyl)-1H-pyrrolo[2,3-b]pyridin-3-yl)pyrimidin-2-amine]",> 70,–,> 70,–,–,–
"Cc1ccc(-c2cnc3[nH]cc(-c4ccnc(NC5CCCCCC5)n4)c3c2)cc1 [1A46, N-cycloheptyl-4-(5-(p-tolyl)-1H-pyrrolo[2,3-b]pyridin-3-yl)pyrimidin-2-amine]",> 50,> 50,> 50,> 50,–,–
"Cc1cccc(-c2cnc3[nH]cc(-c4ccnc(NC5CCCCCC5)n4)c3c2)c1 [1A47, N-cycloheptyl-4-(5-(m-tolyl)-1H-pyrrolo[2,3-b]pyridin-3-yl)pyrimidin-2-amine]",> 50,> 50,> 50,> 50,–,–
"CSc1ccc(-c2cnc3[nH]cc(-c4ccnc(NC5CCCCCC5)n4)c3c2)cc1 [1A48, N-cycloheptyl-4-(5-(4-(methylthio)phenyl)-1H-pyrrolo[2,3-b]pyridin-3-yl)pyrimidin-2-amine]",> 50,> 50,> 50,> 50,–,–
"CSc1ccccc1-c1cnc2[nH]cc(-c3ccnc(NC4CCCCCC4)n3)c2c1 [1A49, N-cycloheptyl-4-(5-(2-(methylthio)phenyl)-1H-pyrrolo[2,3-b]pyridin-3-yl)pyrimidin-2-amine]",–,–,–,–,< 50,< 50
"CCc1ccccc1-c1cnc2[nH]cc(-c3ccnc(NC4CCCCCC4)n3)c2c1 [1A50, N-cycloheptyl-4-(5-(2-ethylphenyl)-1H-pyrrolo[2,3-b]pyridin-3-yl)pyrimidin-2-amine]",–,> 70,–,> 70,> 70,> 70
"Clc1ccc(-c2cnc3[nH]cc(-c4ccnc(NC5CCCCCC5)n4)c3c2)cc1 [1A52, 4-(5-(4-chlorophenyl)-1H-pyrrolo[2,3-b]pyridin-3-yl)-N-cycloheptylpyrimidin-2-amine]",–,> 70,–,> 70,> 70,> 70
"O=Cc1ccc(-c2cnc3[nH]cc(-c4ccnc(NC5CCCCCC5)n4)c3c2)cc1 [1A53, 4-(3-(2-(cycloheptylamino)pyrimidin-4-yl)-1H-pyrrolo[2,3-b]pyridin-5-yl)benzaldehyde]",–,> 70,–,> 70,> 70,> 70
"c1ccc2c(-c3cnc4[nH]cc(-c5ccnc(NC6CCCCCC6)n5)c4c3)cccc2c1 [1A54, N-cycloheptyl-4-(5-(naphthalen-1-yl)-1H-pyrrolo[2,3-b]pyridin-3-yl)pyrimidin-2-amine]",–,> 70,–,> 70,> 70,> 70
"c1cc(-c2c[nH]c3ncc(-c4ccoc4)cc23)nc(NC2CCCCCC2)n1 [1A56, N-cycloheptyl-4-(5-(furan-3-yl)-1H-pyrrolo[2,3-b]pyridin-3-yl)pyrimidin-2-amine]",–,> 70,–,> 70,> 70,> 70
"COc1ccc2[nH]c(-c3cnc4[nH]cc(-c5ccnc(NC6CCCCCC6)n5)c4c3)cc2c1 [1A57, N-cycloheptyl-4-(5-(5-methoxy-1H-indol-2-yl)-1H-pyrrolo[2,3-b]pyridin-3-yl)pyrimidin-2-amine]",–,> 70,–,> 70,> 70,> 70
"c1ccc2sc(-c3cnc4[nH]cc(-c5ccnc(NC6CCCCCC6)n5)c4c3)cc2c1 [1A58, 4-(5-(benzo[b]thiophen-2-yl)-1H-pyrrolo[2,3-b]pyridin-3-yl)-N-cycloheptylpyrimidin-2-amine]",–,> 70,–,> 70,> 70,> 70
"c1ccc2[nH]c(-c3cnc4[nH]cc(-c5ccnc(NC6CCCCCC6)n5)c4c3)cc2c1 [1A59, 4-(5-(1H-indol-2-yl)-1H-pyrrolo[2,3-b]pyridin-3-yl)-N-cycloheptylpyrimidin-2-amine]",–,> 70,–,> 70,> 70,> 70
"c1ccc2c(-c3cnc4[nH]cc(-c5ccnc(NC6CCCCCC6)n5)c4c3)nccc2c1 [1A60, N-cycloheptyl-4-(5-(isoquinolin-1-yl)-1H-pyrrolo[2,3-b]pyridin-3-yl)pyrimidin-2-amine]",–,> 70,–,> 70,> 70,> 70
"FC(F)(F)Oc1ccc(-c2cnc3[nH]cc(-c4ccnc(NCCc5ccccc5)n4)c3c2)cc1 [1B3, N-phenethyl-4-(5-(4-(trifluoromethoxy)phenyl)-1H-pyrrolo[2,3-b]pyridin-3-yl)pyrimidin-2-amine]",–,> 50,–,> 50,> 50,> 50
"FC(F)(F)c1cccc(-c2cnc3[nH]cc(-c4ccnc(NCCc5ccccc5)n4)c3c2)c1 [1B4, N-phenethyl-4-(5-(3-(trifluoromethyl)phenyl)-1H-pyrrolo[2,3-b]pyridin-3-yl)pyrimidin-2-amine]",–,> 70,–,> 70,> 70,> 70
"Cc1ccc(-c2cnc3[nH]cc(-c4ccnc(NCCc5ccccc5)n4)c3c2)cc1 [1B6, N-phenethyl-4-(5-(p-tolyl)-1H-pyrrolo[2,3-b]pyridin-3-yl)pyrimidin-2-amine]",–,> 70,–,> 70,> 70,> 70
"Cc1cccc(-c2cnc3[nH]cc(-c4ccnc(NCCc5ccccc5)n4)c3c2)c1 [1B7, N-phenethyl-4-(5-(m-tolyl)-1H-pyrrolo[2,3-b]pyridin-3-yl)pyrimidin-2-amine]",–,> 70,–,> 70,> 70,> 70
"CSc1ccc(-c2cnc3[nH]cc(-c4ccnc(NCCc5ccccc5)n4)c3c2)cc1 [1B8, 4-(5-(4-(methylthio)phenyl)-1H-pyrrolo[2,3-b]pyridin-3-yl)-N-phenethylpyrimidin-2-amine]",–,> 50,–,> 50,> 50,> 50
"CSc1ccccc1-c1cnc2[nH]cc(-c3ccnc(NCCc4ccccc4)n3)c2c1 [1B9, 4-(5-(2-(methylthio)phenyl)-1H-pyrrolo[2,3-b]pyridin-3-yl)-N-phenethylpyrimidin-2-amine]",–,> 50,–,> 50,> 50,> 50
"CCc1ccccc1-c1cnc2[nH]cc(-c3ccnc(NCCc4ccccc4)n3)c2c1 [1B10, 4-(5-(2-ethylphenyl)-1H-pyrrolo[2,3-b]pyridin-3-yl)-N-phenethylpyrimidin-2-amine]",–,> 50,–,> 50,> 50,> 50
"CC(=O)c1ccc(-c2cnc3[nH]cc(-c4ccnc(NCCc5ccccc5)n4)c3c2)cc1 [1B13, 1-(4-(3-(2-(phenethylamino)pyrimidin-4-yl)-1H-pyrrolo[2,3-b]pyridin-5-yl)phenyl)ethan-1-one]",–,> 50,–,> 50,> 50,> 50
"c1ccc(CCNc2nccc(-c3c[nH]c4ncc(-c5cccc6ccccc56)cc34)n2)cc1 [1B14, 4-(5-(naphthalen-1-yl)-1H-pyrrolo[2,3-b]pyridin-3-yl)-N-phenethylpyrimidin-2-amine]",–,> 50,–,> 50,> 50,> 50
